Assays:
A549-ACE2 [1] = experiment: drug-induced phospholipidosis relative to tamoxifen; higher = more phospholipidosis
[2] = system: A549-ACE2 infected with SARS-CoV-2; experiment: morphology score (similarity to uninfected cells); higher = more like uninfected cells; conditions: 24 h
U2OS [3] = experiment: cell viability relative to DMSO; higher = less toxic; conditions: 72 h
Caco-2 [4] = experiment: as above; conditions: 72 h
HepG2 [5] = experiment: as above; conditions: 72 h
Calu-3 [6] = experiment: as above; conditions: 72 h
Vero E6 [7] = experiment: as above; conditions: 72 h
[8] = system: A549-ACE2 infected with SARS-CoV-2; experiment: cell count relative to DMSO; higher = less toxic; conditions: 24 h
A549-ACE2 [9] = experiment: phospholipidosis EC50; higher = less potent phospholipidosis inducer
U2OS [10] = experiment: drug sensitivity score (DSS) for viability; higher = more toxic; extreme values may be limits of the assay; conditions: 72 h
Caco-2 [11] = experiment: as above; conditions: 72 h
HepG2 [12] = experiment: as above; conditions: 72 h
Calu-3 [13] = experiment: as above; conditions: 72 h
Vero E6 [14] = experiment: as above; conditions: 72 h
[15] = system: A549-ACE2 infected with SARS-CoV-2; experiment: SARS-CoV-2 infection rate relative to DMSO; higher = more infection; conditions: 24 h
U2OS [16] = experiment: relative viability EC50 (midpoint between 100% and the lowest measured viability); higher = less toxic; conditions: 72 h
HepG2 [17] = experiment: as above; conditions: 72 h
Calu-3 [18] = experiment: as above; conditions: 72 h
Vero E6 [19] = experiment: as above; conditions: 72 h
Caco-2 [20] = experiment: as above; conditions: 72 h

COc1ccc(NC(=O)c2ccc(-c3ccc(-c4noc(C)n4)cc3C)cc2)cc1OCCN(C)C
drug-induced phospholipidosis [%], A549-ACE2 [1]
Conditions	0.3 µM	0.833333 µM	3.33333 µM	6.66667 µM	10 µM
24 h	2.56	13.6	76.9	75.2	56
48 h	4.9	6.68	68	79.2	–
72 h	5.85	5.56	57.7	86.2	–

Conditions	SARS-CoV-2 infection rate [%]	cell count [%]	cell viability [%]	morphology score	phospholipidosis EC50 [µM]
A549-ACE2 [9], 24 h	–	–	–	–	1
A549-ACE2 [9], 48 h	–	–	–	–	2.13
A549-ACE2 [9], 72 h	–	–	–	–	3.02
Caco-2 [4], 1 nM	–	–	101	–	–
Caco-2 [4], 10 nM	–	–	102	–	–
Caco-2 [4], 100 nM	–	–	104	–	–
Caco-2 [4], 1000 nM	–	–	92.4	–	–
Caco-2 [4], 10000 nM	–	–	54	–	–
Calu-3 [6], 1 nM	–	–	101	–	–
Calu-3 [6], 10 nM	–	–	102	–	–
Calu-3 [6], 100 nM	–	–	105	–	–
Calu-3 [6], 1000 nM	–	–	92.5	–	–
Calu-3 [6], 10000 nM	–	–	11.2	–	–
HepG2 [5], 1 nM	–	–	121	–	–
HepG2 [5], 10 nM	–	–	95.5	–	–
HepG2 [5], 100 nM	–	–	109	–	–
HepG2 [5], 1000 nM	–	–	90.1	–	–
HepG2 [5], 10000 nM	–	–	6.6	–	–
U2OS [3], 1 nM	–	–	101	–	–
U2OS [3], 10 nM	–	–	105	–	–
U2OS [3], 100 nM	–	–	101	–	–
U2OS [3], 1000 nM	–	–	102	–	–
U2OS [3], 10000 nM	–	–	44.7	–	–
Vero E6 [7], 1 nM	–	–	98.1	–	–
Vero E6 [7], 10 nM	–	–	98	–	–
Vero E6 [7], 100 nM	–	–	96.7	–	–
Vero E6 [7], 1000 nM	–	–	93.1	–	–
Vero E6 [7], 10000 nM	–	–	20.1	–	–
[2], 0.1 µM	–	–	–	-0.01	–
[2], 0.3 µM	–	–	–	0.09	–
[2], 1 µM	–	–	–	0.43	–
[2], 3 µM	–	–	–	0.77	–
[8], 0.1 µM	–	102	–	–	–
[8], 0.3 µM	–	99	–	–	–
[8], 1 µM	–	109	–	–	–
[8], 3 µM	–	126	–	–	–
[15], 0.1 µM	97	–	–	–	–
[15], 0.3 µM	95	–	–	–	–
[15], 1 µM	82	–	–	–	–
[15], 3 µM	26	–	–	–	–

Conditions	drug sensitivity score	relative viability EC50 [µM]
Caco-2 [11]	3.7	–
Calu-3 [13]	6.1	–
Calu-3 [18]	–	2.47
HepG2 [12]	6.8	–
HepG2 [17]	–	2.29
U2OS [10]	2.8	–
U2OS [16]	–	3.33
Vero E6 [14]	5.5	–
Vero E6 [19]	–	2.45

Cc1ccc(-n2nc(C(C)(C)C)cc2NC(=O)Nc2ccc(OCCN3CCOCC3)c3ccccc23)cc1 [doramapimod]
drug-induced phospholipidosis [%], A549-ACE2 [1]
Conditions	0.3 µM	0.833333 µM	3.33333 µM	6.66667 µM	10 µM	30 µM
24 h	-1.22	-3.86	-2.5	7.51	20.8	66.3
48 h	-2.88	-4.62	-1.1	6.99	15.5	–
72 h	-1.89	-3.86	1.71	12.1	19.8	–

Conditions	SARS-CoV-2 infection rate, [15] [%]	cell count, [8] [%]	cell viability, Caco-2 [4] [%]	cell viability, Calu-3 [6] [%]	cell viability, HepG2 [5] [%]	cell viability, U2OS [3] [%]	cell viability, Vero E6 [7] [%]	morphology score, [2]
1 nM	–	–	93.8	114	107	98.6	108	–
10 nM	–	–	108	97.3	105	104	95.2	–
100 nM	–	–	89.3	92.4	99.7	91.6	95.5	–
0.3 µM	105	91	–	–	–	–	–	-0.27
1000 nM	–	–	90.9	97.2	104	93.7	95.7	–
3 µM	68	105	–	–	–	–	–	0.36
10 µM	72	115	–	–	–	–	–	0.7
10000 nM	–	–	93.6	88.4	111	95.6	104	–
30 µM	16	70	–	–	–	–	–	0.44

Conditions	drug sensitivity score	relative viability EC50 [µM]
Caco-2 [11]	0.3	–
Caco-2 [20]	–	> 10
Calu-3 [13]	0	–
Calu-3 [18]	–	> 10
HepG2 [12]	0	–
HepG2 [17]	–	> 10
U2OS [10]	0	–
U2OS [16]	–	> 10
Vero E6 [14]	0	–
Vero E6 [19]	–	> 10

CN(C)c1ccc(-c2nc3c(N4CCN(CC(=O)Nc5nccs5)CC4)c(Cl)cnc3[nH]2)cc1
drug-induced phospholipidosis [%], A549-ACE2 [1]
Conditions	0.3 µM	0.833333 µM	3.33333 µM	6.66667 µM	10 µM	30 µM
24 h	4.66	-0.19	5.5	0.89	5.75	7.19
48 h	6.88	1.34	2.05	1.71	1.43	6.09
72 h	3.52	-6.12	-1.19	0.0519	-2.06	6.76

Conditions	SARS-CoV-2 infection rate, [15] [%]	cell count, [8] [%]	cell viability, Caco-2 [4] [%]	cell viability, Calu-3 [6] [%]	cell viability, HepG2 [5] [%]	cell viability, U2OS [3] [%]	cell viability, Vero E6 [7] [%]	morphology score, [2]
1 nM	–	–	99.6	102	105	97.1	94.5	–
10 nM	–	–	103	95.7	105	90.9	97.6	–
100 nM	–	–	96.4	91.3	92	98	88.7	–
0.3 µM	94	101	–	–	–	–	–	0.26
1000 nM	–	–	94.7	109	99.9	89.3	95.8	–
3 µM	101	97	–	–	–	–	–	-0.1
10 µM	96	97	–	–	–	–	–	0.16
10000 nM	–	–	98.7	91.5	98.2	67.4	100	–
30 µM	65	83	–	–	–	–	–	0.47

Conditions	drug sensitivity score	relative viability EC50 [µM]
Caco-2 [11]	0	–
Caco-2 [20]	–	> 10
Calu-3 [13]	0	–
Calu-3 [18]	–	> 10
HepG2 [12]	0	–
HepG2 [17]	–	> 10
U2OS [10]	2.8	–
Vero E6 [14]	0	–
Vero E6 [19]	–	> 10

COc1cc(-n2cnc3cc(-c4ccc(Cl)cc4)sc3c2=O)ccc1OCCN1CCCC1
drug-induced phospholipidosis [%], A549-ACE2 [1]
Conditions	0.3 µM	0.833333 µM	3.33333 µM	6.66667 µM	10 µM	30 µM
24 h	0.98	-0.51	19.1	56.7	87.1	172
48 h	1.08	-1.67	14.3	36.9	63.3	141
72 h	2.44	-3.52	9.91	23.8	43.5	111

Conditions	SARS-CoV-2 infection rate [%]	cell count [%]	cell viability [%]	morphology score	phospholipidosis EC50 [µM]
A549-ACE2 [9], 24 h	–	–	–	–	12.9
A549-ACE2 [9], 48 h	–	–	–	–	16.7
A549-ACE2 [9], 72 h	–	–	–	–	21
Caco-2 [4], 1 nM	–	–	111	–	–
Caco-2 [4], 10 nM	–	–	88.4	–	–
Caco-2 [4], 100 nM	–	–	104	–	–
Caco-2 [4], 1000 nM	–	–	103	–	–
Caco-2 [4], 10000 nM	–	–	88.7	–	–
Calu-3 [6], 1 nM	–	–	102	–	–
Calu-3 [6], 10 nM	–	–	102	–	–
Calu-3 [6], 100 nM	–	–	100	–	–
Calu-3 [6], 1000 nM	–	–	101	–	–
Calu-3 [6], 10000 nM	–	–	89.3	–	–
HepG2 [5], 1 nM	–	–	108	–	–
HepG2 [5], 10 nM	–	–	108	–	–
HepG2 [5], 100 nM	–	–	108	–	–
HepG2 [5], 1000 nM	–	–	93.9	–	–
HepG2 [5], 10000 nM	–	–	73.2	–	–
U2OS [3], 1 nM	–	–	92.4	–	–
U2OS [3], 10 nM	–	–	95.9	–	–
U2OS [3], 100 nM	–	–	95.7	–	–
U2OS [3], 1000 nM	–	–	102	–	–
U2OS [3], 10000 nM	–	–	90.6	–	–
Vero E6 [7], 1 nM	–	–	110	–	–
Vero E6 [7], 10 nM	–	–	104	–	–
Vero E6 [7], 100 nM	–	–	107	–	–
Vero E6 [7], 1000 nM	–	–	93.4	–	–
Vero E6 [7], 10000 nM	–	–	93.6	–	–
[2], 0.3 µM	–	–	–	0.28	–
[2], 3 µM	–	–	–	0.6	–
[2], 10 µM	–	–	–	0.87	–
[2], 30 µM	–	–	–	0.67	–
[8], 0.3 µM	–	104	–	–	–
[8], 3 µM	–	116	–	–	–
[8], 10 µM	–	120	–	–	–
[8], 30 µM	–	120	–	–	–
[15], 0.3 µM	98	–	–	–	–
[15], 3 µM	73	–	–	–	–
[15], 10 µM	20	–	–	–	–
[15], 30 µM	18	–	–	–	–

Conditions	drug sensitivity score	relative viability EC50 [µM]
Caco-2 [11]	0	–
Caco-2 [20]	–	> 10
Calu-3 [13]	0	–
Calu-3 [18]	–	> 10
HepG2 [12]	2	–
U2OS [10]	0	–
U2OS [16]	–	> 10
Vero E6 [14]	0	–
Vero E6 [19]	–	> 10

Source: the supplement of paper PMC13380429
